Among the data in US10011592B2, “Polycyclic inhibitor of anaplastic lymphoma kinase” (XUANZHU PHARMA CO., LTD., priority 2014, dated 2018) are IC50 and bioavailability values, retold here.

Read-outs that look alike come from different tables or passages of the source.

In one data set the test system is Karpas-299. Put plainly: In vitro cell activity, Karpas-299, MTS detection. Type of data set: cell-based. As to conditions: Homo sapiens, read-out: cell-inhibiting activity IC50, Karpas-299. The protocol: (§1) Cells were digested with pancreatin. After centrifugation at 1000 rpm for 4 min, the supernatant was removed. […] The cell suspension (90 μL) was seeded to a 96-well plate to obtain a final cell density of 3000 cells/well; and then cultured in a 5% CO2, 37° C. incubator for 24 h.
(§2) Preparation of test compound solutions: a suitable amount of test compound (please see the following table for sample weight) was weighed, and diluted gradiently with DMSO to prepare a series of stock solutions of different concentrations (1000×test compound solution). Each of said stock solutions was further diluted by 100 folds with medium to obtain a 10×test compound solution.
(§3) Solvent control: 0.1% DMSO.
(§4) Cell control: cell seeding only, with no addition of compound.
(§5) Blank control: medium, for zero setting in an instrument.
(§6) (3.3) The 96-well plate was cultured in a 37° C., 5% CO2 incubator for 72h.
(§7) (1) The reagents in CellTiter 96®AQueous One Solution Cell Proliferation Assay (MTS) were placed at room temperature for 90 min.
(§8) (2) To each test well in the 96-well plate, 20 μL CellTiter 96® A Queous One Solution reagent was added.
(§9) (3) The 96-well plate was cultured in a 37° C., 5% CO2 incubator for 40 min.
(§10) (4) The results were read by Microplate Reader at 490 nm.
(§11) IC50 calculation: cell survival rate (%)=(ODsample value−ODblank value)/(ODmaximal value−ODblank value)×100, wherein Graph prisim software is used in curve fitting to get IC50 value.
(§12) ODmaximal value: cell control with the addition of solvent and no compound, ODblank value: blank control value.

Another data set deals with NCI-H3122. Put plainly: In vitro cell activity, NCI-H3122, MTS detection. Type of data set: cell-based. As to conditions: Homo sapiens, read-out: cell-inhibiting activity IC50, NCI-H3122. The method, then:
as §1, §2, §3, §4, §5, §6, §7, §8, §9, §10, §11, §12

For the next data set, the system named is NCI-H2228. The experiment in a line: In vitro cell activity, NCI-H2228, CTG detection. Type of data set: cell-based. As to conditions: Homo sapiens, read-out: cell-inhibiting activity IC50, NCI-H2228. The method, then:
Cells were digested with pancreatin. After centrifugation at 1000 rpm for 4 min, the supernatant was removed. […] The cell suspension (100 μL) was seeded to a 96-well plate to obtain a final cell density of 2000 cells/well.
(3.1) Preparation of test compound solutions: a suitable amount of test compound (please see the following table for sample weight) was weighed, and dissolved by adding a suitable amount of DMSO. The resultant mixture was mixed homogeneously, and diluted gradiently with DMSO to prepare a series of solutions of different concentrations, for later usage.
Solvent control: 0.5% DMSO.
as §4, §5
(3.3) The 96-well plate was cultured in a 37° C., 5% CO2 incubator for 96 h.
(1) 80 μL medium was removed from each well in the 96-well plate, and the plate was placed at room temperature for 30 min.
(2) 60 μL CellTiter-Glo® reagent was added to each test well in the 96-well plate.
(3) The 96-well plate was shaken for 2 min in dark to mix the mixture homogeneously in a microplate shaker, so as to lyse the cells.
(4) The 96-well plate was incubated in dark at room temperature for 10 min, to keep the light signal value stable.
(5) The results were read by Microplate Reader in luminescence mode.
IC50 calculation: cell inhibition rate (%)=(ODmaximal value−ODcompound)/(ODmaximal value−ODblank value)×100, wherein Graph prisim software is used in curve fitting to get IC50 value.
ODmaximal value: cell control with the addition of solvent and no compound, ODblank value: medium blank control.

For data set [1], the target named is T1, ALK kinase (Homo sapiens, UniProt Q9UM73). Put plainly: In vitro ALK kinase-inhibiting activity (SA-XL665/tyrosine kinase antibody, 665 nm/615 nm read). Type of data set: biochemical. Particulars: Experimental Example 1; 25° C., 30 min enzymatic reaction; read-out: ALK enzyme-inhibiting activity IC50. The protocol:
Preparation of ALK Kinase Buffer:
(§13) The resultant mixture was mixed homogeneously, for later usage.
as §13
Preparation of a stock solution of compound at a concentration of 1 mM: a suitable amount of compound (please see the following table for sample weight) was weighed, and dissolved by adding a suitable amount of DMSO. The resultant mixture was mixed homogeneously, for later usage.
Each of the 1 mM stock solutions was diluted with DMSO to a 200 μM solution, which was used as initial solution. Each of said initial solutions was 3-fold diluted with DMSO to prepare a series of solutions of different concentrations, and then the solution of each concentration was diluted with the ALK kinase buffer by 80 folds to prepare a 2.5×test compound solution.
Preparation of Other Reagents:
5×ALK kinase solution, 5×substrate solution, and 5×ATP solution, were prepared by using the ALK kinase buffer, for later usage.
1) 4 μL 2.5× test compound solution and 2 μL 5×ALK kinase solution were added to the corresponding wells in a 384-well plate, respectively, and incubated at 25° C. for 10 min.
2) To the corresponding wells, 2 μL 5× substrate solution and 2 μL 5×ATP solution were further added to start the enzymatic reaction, and incubation was performed at 25° C. for 30 min.
Detection buffer was used to prepare SA-XL665 at a desired concentration, which was then mixed homogeneously with the same volume of tyrosine kinase antibody. To the corresponding wells, 10 μL said antibody solution was added, and the reaction was stopped. Incubation was performed at 25° C. for 1 h.
IC50: Inhibition rate (%)=(maximal value-sample value)/(maximal value-minimal value)×100, wherein Graph prism software was used in curve fitting to get IC50 value.
Maximal value: positive control without addition of compound; minimal value: negative control without addition of enzyme.

A short description of the next data set: Pharmacokinetics in rat. Particulars: plasma, iv 2 mg/kg, po 5 mg/kg. It is filed as in vivo. The method, then:
Experimental Example 6 Assay on Pharmacokinetics of the Compounds Provided in Examples of the Invention in Rat
Test compounds: Compound 4, lab-made, the chemical name and preparation method of which can be found in the preparation example.
Internal standard: Alectinib, lab-made (prepared by reference to the method in Patent CN102459172A).
0.1% Tween 80+2% HPC: HPC (hydroxypropyl cellulose) (20 g) was weighed, and was added slowly to purified water (1000 mL) under stirring; Tween 80 (1 mL) was then added, and the resultant mixture was stirred until a clear solution was obtained, i.e. a blank solvent of 0.1% Tween 80+2% HPC.
A suitable amount of test compound (please see the following table for sample weight) was weighed, and said prepared solvent was added. The resultant mixture was placed in a tissue grinder, and was dispersed homogeneously at a rotation speed of 1000 r/min to get a solution for intragastric administration. […]
Protein precipitation method: to 30 μL plasma, 200 μL internal standard (acetonitrile solution containing 50 ng/mL Alectinib) was added; the resultant mixture was vortexed at 1000 r/min for 10 min, and then centrifuged at 4000 r/min for 20 min; to 100 μL supernatant, 100 μL water was added; the resultant mixture was mixed homogeneously under vortexing and analyzed by LC-MS/MS.

Data set [2] addresses T1, ALK kinase. Put plainly: In vitro ALK kinase inhibitory activity by Caliper Mobility Shift assay. Type of data set: biochemical. As to conditions: Experimental Example 2, 28° C., 1 h, read-out: ALK enzyme-inhibiting activity IC50. An excerpt: Experimental method: Measurement of ALK kinase inhibitory activity by Caliper Mobility Shift assay.
1. Preparation of 1-Fold Kinase Buffer
2. Preparation of Stop Solution
3. Preparation of 5-Fold Test Compound Solutions:
Preparation of a DMSO stock solution of test compound: a suitable amount of compound (please see the following table for sample weight) was weighed, and dissolved by adding a suitable amount of DMSO. The resultant mixture was mixed homogeneously, for later usage.
Said DMSO stock solution of test compound was diluted with DMSO to a solution at a concentration of 50 μM, which was used as initial solution. Said initial solution was subjected to 4-fold gradient dilution with DMSO, and the solution at each concentration was 10-fold diluted with 1-fold kinase buffer to prepare a 5-fold test compound solution.
4. Preparation of Other Reagents:
2.5×ALK kinase solution and 2.5× polypeptide solution were prepared by using the 1-fold kinase buffer, for later usage.
1) 5 μL 5-fold test compound solution and 10 μL 2.5-fold kinase solution were added to the corresponding wells in a 384-well plate, and incubated at room temperature for 10 min.
The enzymatic reaction was started, and the incubation was performed at 28° C. for 1 h.
To the corresponding wells, 25 μL stop solution was added to stop the reaction. Data was read by Caliper device, and the inhibition rate was calculated by the data,
Inhibition rate (%)=(maximal value-sample value)/(maximal value-minimal value)×100, wherein XLFIT software was used in curve fitting to get IC50 value.
Maximal value: positive control without addition of test compound; minimal value: negative control without addition of enzyme.

The IC50 is the concentration that inhibits the measured activity by half. The bioavailability is the share of a dose that reaches the circulation, judged against a reference dose that is usually intravenous. High values mean good availability, low ones poor availability.

T1 sequence (Q9UM73 19-1620): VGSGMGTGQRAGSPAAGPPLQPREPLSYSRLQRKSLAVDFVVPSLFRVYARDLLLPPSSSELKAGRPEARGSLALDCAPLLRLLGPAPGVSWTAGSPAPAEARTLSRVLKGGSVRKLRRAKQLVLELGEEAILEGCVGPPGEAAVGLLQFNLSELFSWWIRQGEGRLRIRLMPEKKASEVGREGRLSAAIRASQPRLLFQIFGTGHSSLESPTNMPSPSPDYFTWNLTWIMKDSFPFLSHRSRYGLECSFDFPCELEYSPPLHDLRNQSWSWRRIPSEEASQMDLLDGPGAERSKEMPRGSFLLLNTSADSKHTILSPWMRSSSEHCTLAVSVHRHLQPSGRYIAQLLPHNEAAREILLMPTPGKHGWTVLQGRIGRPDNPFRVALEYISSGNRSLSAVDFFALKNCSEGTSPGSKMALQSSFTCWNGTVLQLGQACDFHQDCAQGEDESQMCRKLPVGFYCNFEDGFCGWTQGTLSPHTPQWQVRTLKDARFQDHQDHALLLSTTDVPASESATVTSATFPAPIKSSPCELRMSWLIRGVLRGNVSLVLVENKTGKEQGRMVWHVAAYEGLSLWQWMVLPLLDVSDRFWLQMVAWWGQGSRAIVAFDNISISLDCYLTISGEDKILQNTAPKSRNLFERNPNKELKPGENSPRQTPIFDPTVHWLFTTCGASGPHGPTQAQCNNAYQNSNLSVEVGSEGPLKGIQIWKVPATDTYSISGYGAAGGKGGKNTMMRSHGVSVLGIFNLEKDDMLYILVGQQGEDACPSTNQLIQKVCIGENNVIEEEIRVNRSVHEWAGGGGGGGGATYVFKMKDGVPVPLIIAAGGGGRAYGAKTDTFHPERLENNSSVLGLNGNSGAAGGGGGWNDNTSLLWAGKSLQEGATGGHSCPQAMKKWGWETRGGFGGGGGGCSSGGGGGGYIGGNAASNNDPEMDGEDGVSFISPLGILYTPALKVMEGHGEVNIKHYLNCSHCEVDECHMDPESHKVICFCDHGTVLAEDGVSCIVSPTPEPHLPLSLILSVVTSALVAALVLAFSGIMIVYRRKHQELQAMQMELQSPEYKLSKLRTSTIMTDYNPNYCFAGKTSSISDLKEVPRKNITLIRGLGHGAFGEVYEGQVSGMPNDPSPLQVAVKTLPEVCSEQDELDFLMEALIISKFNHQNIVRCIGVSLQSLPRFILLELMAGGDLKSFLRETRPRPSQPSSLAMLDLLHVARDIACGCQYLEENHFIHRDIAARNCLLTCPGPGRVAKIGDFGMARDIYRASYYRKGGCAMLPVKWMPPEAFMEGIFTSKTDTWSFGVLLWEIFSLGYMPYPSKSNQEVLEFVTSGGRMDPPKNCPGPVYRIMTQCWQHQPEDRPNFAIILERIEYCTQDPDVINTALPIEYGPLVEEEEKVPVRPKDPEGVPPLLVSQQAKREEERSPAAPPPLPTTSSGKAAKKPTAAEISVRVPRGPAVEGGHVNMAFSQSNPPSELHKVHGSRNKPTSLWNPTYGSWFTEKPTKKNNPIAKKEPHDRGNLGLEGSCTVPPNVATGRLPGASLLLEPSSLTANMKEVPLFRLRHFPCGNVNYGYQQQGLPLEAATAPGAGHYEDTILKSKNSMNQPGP

As to `Cc1cc(Nc2ncc(Cl)c(Nc3ccccc3S(=O)(=O)C(C)C)n2)c(OC(C)C)cc1C1CCNCC1` [Ceritinib, reference compound], the 50% inhibitory concentration (IC50) in the data set on Karpas-299 (KARPAS-299, 72 h) is 30 nM; with NCI-H3122 (NCI-H3122, 72 h), 138 nM; in the data set with NCI-H2228 (NCI-H2228, 96 h), 48.1 nM.
For `Cc1cc(Nc2ncc(Cl)c(Nc3ccccc3S(=O)(=O)C(C)C)n2)c2c(c1C1CCNCC1)OCO2` [Compound 1, 5-chloro-N^4-(2-(isopropylsulfonyl)phenyl)-N^2-(6-methyl-7-(piperidin-4-yl)benzo[d][1,3]dioxol-4-yl)pyrimidine-2,4-diamine], the IC50 was 0.7 nM in the data set on Karpas-299 (KARPAS-299, 72 h, MTS); 10.9 nM in the data set with NCI-H3122 (NCI-H3122, 72 h, MTS); 3.21 nM in the data set on NCI-H2228 (NCI-H2228, 96 h, CTG); 0.2 nM on ALK kinase [1].
Taken in the same sequence, the figures for `Cc1cc(Nc2ncc(Cl)c(Nc3ccccc3S(=O)(=O)N(C)C)n2)c2c(c1C1CCNCC1)OCO2` [Compound 2, 2-((5-chloro-2-((6-methyl-7-(piperidin-4-yl)benzol[d][1,3]dioxol-4-yl)amino)pyrimidin-4-yl)amino)-N,N-dimethylbenzenesulfonamide] were 7.66 nM, 4.18 nM, 5.47 nM and 1.7 nM.
In the case of `Cc1cc(Nc2ncc(Cl)c(Nc3ccccc3S(=O)(=O)N(C)C)n2)c2c(c1C1CCNCC1)OCCO2` [Compound 3, 2-((5-chloro-2-((7-methyl-8-(piperidin-4-yl)-2,3-dihydrobenzo[b][1,4]dioxin-5-yl)amino)pyrimidin-4-yl)amino)-N,N-dimethylbenzenesulfonamide], the IC50 amounted to 0.164 nM in the data set on Karpas-299 (KARPAS-299, 72 h, MTS); 43.2 nM in the data set on NCI-H3122 (NCI-H3122, 72 h, MTS); 1.72 nM in the data set with NCI-H2228 (NCI-H2228, 96 h, CTG); 0.6 nM on ALK kinase [1].
For the molecule `Cc1cc(Nc2ncc(Cl)c(Nc3ccccc3S(=O)(=O)C(C)C)n2)c2c(c1C1CCNCC1)OCCO2` [Compound 4, 5-chloro-N^4-(2-(isopropylsulfonyl)phenyl)-N^2-(7-methyl-8-(piperidin-4-yl)-2,3-dihydrobenzo[b][1,4]dioxin-5-yl)pyrimidine-2,4-diamine], the IC50 in the data set with Karpas-299 (KARPAS-299, 72 h, MTS) was 0.71 nM; in the data set with NCI-H3122 (NCI-H3122, 72 h, MTS), 130 nM; with NCI-H2228 (NCI-H2228, 96 h, CTG), 15.1 nM; at ALK kinase [1] it was 0.9 nM. For the same molecule, the bioavailability in “Pharmacokinetics in rat” was in the range of 30 to 50%.
As for `Cc1cc(Nc2ncc(Cl)c(Nc3ccccc3S(=O)(=O)C(C)C)n2)c2c(c1C1CCNC1)OCCO2` (stereo not drawn) [Compound 5, 5-chloro-N^4-(2-(isopropylsulfonyl)phenyl)-N^2-(7-methyl-8-(pyrrolidin-3-yl)-2,3-dihydrobenzo[b][1,4]dioxin-5-yl)pyrimidine-2,4-diamine], the concentration for half-maximal inhibition (IC50) stood at 0.36 nM on ALK kinase [2]; 5.36 nM in the data set with Karpas-299 (KARPAS-299, 72 h, MTS); 25.1 nM with NCI-H3122 (NCI-H3122, 72 h, MTS); 7.41 nM in the data set with NCI-H2228 (NCI-H2228, 96 h, CTG).
Consider `Cc1cc(Nc2ncc(Cl)c(Nc3ccccc3S(=O)(=O)C(C)C)n2)c2c(c1C1CNC1)OCCO2` [Compound 6, N^2-(8-(azetidin-3-yl)-7-methyl-2,3-dihydrobenzo[b][1,4]dioxin-5-yl)-5-chloro-N^4-(2-(isopropylsulfonyl)phenyl)pyrimidine-2,4-diamine], for which the IC50 at ALK kinase [2] came to 0.45 nM; with Karpas-299 (KARPAS-299, 72 h, MTS), 9.92 nM; in the data set with NCI-H3122 (NCI-H3122, 72 h, MTS), 61.7 nM.
Taken in the same sequence, the figures for `Cc1cc(Nc2ncc(Cl)c(Nc3ccccc3S(=O)(=O)C(C)C)n2)c2c(c1C1=CCNCC1)CCCO2` [Compound 8, 5-chloro-N^4-(2-(isopropylsulfonyl)phenyl)-N^2-(6-methyl-5-(1,2,3,6-tetrahydropyridine-4-yl)chroman-8-yl)pyrimidine-2,4-diamine] were 0.54 nM, 5.18 nM and 16.1 nM.
